Laboratory results from PubChem BioAssay (NCI).
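Protocol summary: plate cells (96-well), add compound at 5 concentrations, incubate 48 h, interpolate endpoints linearly. TGI: total growth inhibition.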

Tests used:
Experiment in all cases: NCI tumour cell line growth inhibition, 48 h
[1] = test system: HCT-15 colon
[2] = test system: HL-60(TB) leukemia
[3] = test system: IGROV1 ovarian
[4] = test system: KM20L2 colon
[5] = test system: M14 melanoma
[6] = test system: MALME-3M melanoma
[7] = test system: NCI-H226 lung
[8] = test system: NCI-H23 lung
[9] = test system: OVCAR-5 ovarian
[10] = test system: RXF 393 renal
[11] = test system: SF-268 CNS
[12] = test system: SN12C renal
[13] = test system: SW-620 colon
[14] = test system: UACC-257 melanoma
[15] = test system: UO-31 renal
[16] = test system: A498 renal
[17] = test system: OVCAR-4 ovarian
[18] = test system: BT-549 breast
[19] = test system: NCI/ADR-RES ovarian
[20] = test system: PC-3 prostate

Compound	TGI [1] [µM]	TGI [2] [µM]	TGI [3] [µM]	TGI [4] [µM]	TGI [5] [µM]	TGI [6] [µM]	TGI [7] [µM]	TGI [8] [µM]	TGI [9] [µM]	TGI [10] [µM]	TGI [11] [µM]	TGI [12] [µM]	TGI [13] [µM]	TGI [14] [µM]	TGI [15] [µM]	TGI [16] [µM]	TGI [17] [µM]	TGI [18] [µM]	TGI [19] [µM]	TGI [20] [µM]
Cc1ccc(/C(O)=C/c2nc3c(nc2NC24CC5CC(CC(C5)C2)C4)c(=O)oc2ccccc23)cc1	> 100	> 100	> 100	> 100	> 100	> 100	> 100	> 100	> 100	> 100	> 100	> 100	> 100	> 100	> 100					
CCOC(=O)N1c2c(ccn2C)-c2ccn(C)c2N1C(=O)OCC	26.5	26.7	52.4	27.8	30.8	37.1	37.5		35.5		38.7	29.6	28.6		35.4	> 100				
COc1ccc2cc3[nH]c(=O)cc(O)c3cc2c1OC	> 100	> 100	> 100	> 100	> 100	> 100	> 100	> 100	> 100	> 100	> 100	> 100	> 100	> 100	> 100	> 100	> 100			
CC(=O)OC[C@]1(C)CCCC2(C)C1CCC1C=C(C)[C@H]3CCC12C3 (some centres undefined)	> 100	> 100	> 100	> 100	> 100	> 100	> 100	> 100	> 100	> 100	> 100	> 100	> 100	> 100	> 100		> 100			
Cc1nc(C(N)=S)sc1C(=O)CC(=O)C(=O)Nc1ccccc1[N+](=O)[O-]	> 100	> 100	> 100	> 100	> 100	> 100		> 100	> 100	> 100	> 100		> 100	> 100	> 100	> 100	> 100			
CN(C)CCCn1c(Cc2ccc(Cl)cc2)nc2cc(C(F)(F)F)ccc21	32.8	61.9	27.3		25.6	24	36.4	31.4	32.5	22.7	29.1	29.4	> 57.8	30.1	1	25.5	27.6	32.4	33.6	29
C/C=C1\C=C(OC)CN(CCc2c[nH]c3ccccc23)C1	> 100	> 100	> 100	> 100	95.6	56.8	> 100	> 100			95.5	> 100	> 100	> 100	> 100	> 100	> 100			
NC(=O)c1cc2ccc(O)cc2o/c1=N/NC(=O)c1ccccc1	> 100	> 100	> 100		> 100	> 100	> 100	> 100	> 100	> 100	> 100	> 100	> 100	> 100	> 100	> 100	> 100	> 100	> 100	> 100
Cc1cc(C)c(S(=O)(=O)N2CCCN(S(=O)(=O)c3c(C)cc(C)cc3C)OCCCO2)c(C)c1	> 100	> 100	> 100		> 100	> 100	> 100	> 100	> 100	> 100	> 100	> 100	> 100	> 100	> 100	> 100	> 100	> 100	> 100	> 100
CC(O)c1cc2c(s1)C(=O)c1ccsc1C2=O (centres undefined)	0.118	0.0791	1.25		0.241	0.0449	1.32	0.0304	0.3	0.56	0.679	0.238	0.511	0.0688	0.413	2.95	0.533	0.23	0.743	0.158
O=C1Cc2c([nH]c3ccccc23)-c2ccccc2N1	> 100	> 100	70.8	50.7	> 100	> 100	> 100	61.1	67.4	40.7	> 100	> 100	66.7	> 100	> 100	> 100	> 100			
